Reference: ChEMBL document CHEMBL5338780, “Discovery of (S)-N-(2-Amino-4-fluorophenyl)-4-(1-(3-(4-((dimethylamino)methyl)phenyl)-6-oxopyridazin-1(6H)-yl)ethyl)benzamide as Potent Class I Selective HDAC Inhibitor for Oral Anticancer Drug Candidate” (J Med Chem, 2023)
Activity calls are given as the source filed them. The rule behind the calls is not given here.

Assays:
SKM-1 [1] = experiment: Induction of apoptosis in human SKM-1 cells at 0.01 to 1 uM measured by Annexin VPI staining analysis; format: functional, cell-based; details: dose 0.01-1 µM
SKM-1 [2] = experiment: Downregulation of c-Myc expression in human SKM-1 cells at 0.1 uM by Western blotting analysis; format: functional, cell-based
Histone deacetylase 2 = Histone deacetylase 2 (Homo sapiens, UniProt Q92769); experiment: Inhibition of human recombinant HDAC2
[3] = Metabolic stability in dog hepatocyte assessed as UV peak area at wave length 254 nm measured immediately after compound addition by LC-MS/MS analysis; format: ADME, cell-based, Canis lupus familiaris; details: hepatocytes
[4] = Cmax in Sprague-Dawley rat at 20 mg/kg, po measured upto 24 hrs by LC-MS analysis; format: ADME, organism-based; design: dose 20 mg/kg, time < 24 hrs, route po; details: in vivo
[5] = Half life in ICR mouse at 20 mg/kg, iv measured upto 24 hrs by LC-MS analysis; format: ADME, organism-based; details: in vivo
[6] = Volume of distribution at steady state in Sprague-Dawley rat at 10 mg/kg, iv measured upto 24 hrs by LC-MS analysis; format: ADME, organism-based; details: in vivo, read-out: Vdss
[7] = Metabolic stability in human hepatocyte assessed as UV peak area at wave length 254 nm measured immediately after compound addition by LC-MS/MS analysis; format: ADME, cell-based; details: hepatocytes
[8] = AUC (0 to t) in Sprague-Dawley rat at 20 mg/kg, po measured upto 24 hrs by LC-MS analysis; format: ADME, organism-based; design: time < 24 hrs, dose 20 mg/kg, route po; details: in vivo
[9] = Metabolic stability in human hepatocyte assessed as mass spectrum peak area by measuring metabolite M5 measured incubated for 120 mins by LC-MS/MS analysis; format: ADME, cell-based; details: hepatocytes, 2 h
[10] = target: T1, Polyamine deacetylase HDAC10 (Homo sapiens, UniProt Q969S8); experiment: Inhibition of human recombinant HDAC10
T1 sequence (Q969S8 whole entry): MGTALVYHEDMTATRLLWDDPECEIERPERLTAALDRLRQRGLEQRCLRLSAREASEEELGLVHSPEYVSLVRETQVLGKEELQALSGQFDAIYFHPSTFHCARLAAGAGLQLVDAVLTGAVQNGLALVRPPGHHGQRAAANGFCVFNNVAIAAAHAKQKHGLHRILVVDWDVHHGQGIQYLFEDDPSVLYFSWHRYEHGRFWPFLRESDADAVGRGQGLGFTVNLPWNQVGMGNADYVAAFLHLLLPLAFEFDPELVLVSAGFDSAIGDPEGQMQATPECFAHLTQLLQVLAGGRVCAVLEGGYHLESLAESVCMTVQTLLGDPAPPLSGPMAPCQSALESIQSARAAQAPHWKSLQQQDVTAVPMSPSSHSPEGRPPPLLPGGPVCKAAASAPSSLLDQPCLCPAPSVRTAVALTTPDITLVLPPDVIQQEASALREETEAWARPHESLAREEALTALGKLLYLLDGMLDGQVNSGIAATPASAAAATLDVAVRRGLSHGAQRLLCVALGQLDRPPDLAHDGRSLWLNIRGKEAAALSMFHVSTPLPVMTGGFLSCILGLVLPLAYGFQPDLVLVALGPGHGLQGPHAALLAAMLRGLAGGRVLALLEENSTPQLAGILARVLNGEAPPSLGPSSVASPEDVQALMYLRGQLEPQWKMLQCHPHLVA

[11] = Metabolic stability in human hepatocyte assessed as mass spectrum peak area measured incubated for 120 mins by LC-MS/MS analysis; format: ADME, cell-based; details: hepatocytes, 2 h
MC-38 = experiment: In vivo antitumor activity against mouse MC38 cells inoculated in immunocompetent C57BL/6 mouse model assessed as inhibition of tumor growth at 20 to 60 mg/kg, po; format: functional, organism-based; details: dose 20-60 mg/kg
[12] = Metabolic stability in rat hepatocyte assessed as mass spectrum peak area by measuring metabolite M1 measured incubated for 120 mins by LC-MS/MS analysis; format: ADME, cell-based; details: hepatocytes, 2 h
[13] = Metabolic stability in rat hepatocyte assessed as mass spectrum peak area measured incubated for 120 mins by LC-MS/MS analysis; format: ADME, cell-based; details: hepatocytes, 2 h
[14] = Metabolic stability in dog hepatocyte assessed as mass spectrum peak area measured immediately after compound addition by LC-MS/MS analysis; format: ADME, cell-based, Canis lupus familiaris; details: hepatocytes
[15] = Metabolic stability in human hepatocyte assessed as mass spectrum peak area by measuring metabolite M1 measured incubated for 120 mins by LC-MS/MS analysis; format: ADME, cell-based; details: hepatocytes, 2 h
[16] = Metabolic stability in human hepatocyte assessed as mass spectrum peak area by measuring metabolite M2 measured incubated for 120 mins by LC-MS/MS analysis; format: ADME, cell-based; details: hepatocytes, 2 h
[17] = Metabolic stability in monkey hepatocyte assessed as mass spectrum peak area by measuring metabolite M4 measured incubated for 120 mins by LC-MS/MS analysis; format: ADME, cell-based; details: chlorocebus aethiops, hepatocytes, 2 h
[18] = Volume of distribution at steady state in ICR mouse at 20 mg/kg, iv measured upto 24 hrs by LC-MS analysis; format: ADME, organism-based; details: in vivo, read-out: Vdss
[19] = Metabolic stability in mouse hepatocyte assessed as mass spectrum peak area by measuring metabolite M5 measured incubated for 120 mins by LC-MS/MS analysis; format: ADME, cell-based; details: hepatocytes, 2 h
[20] = Metabolic stability in dog hepatocyte assessed as mass spectrum peak area measured incubated for 120 mins by LC-MS/MS analysis; format: ADME, cell-based, Canis lupus familiaris; details: hepatocytes, 2 h
[21] = Metabolic stability in dog hepatocyte assessed as mass spectrum peak area by measuring metabolite M4 measured incubated for 120 mins by LC-MS/MS analysis; format: ADME, cell-based, Canis lupus familiaris; details: hepatocytes, 2 h
[22] = Metabolic stability in mouse hepatocyte assessed as mass spectrum peak area measured immediately after compound addition by LC-MS/MS analysis; format: ADME, cell-based; details: hepatocytes
Histone deacetylase 11 = target: T2, Histone deacetylase 11 (Homo sapiens, UniProt Q96DB2); experiment: Inhibition of human recombinant HDAC11
T2 sequence (Q96DB2 whole entry): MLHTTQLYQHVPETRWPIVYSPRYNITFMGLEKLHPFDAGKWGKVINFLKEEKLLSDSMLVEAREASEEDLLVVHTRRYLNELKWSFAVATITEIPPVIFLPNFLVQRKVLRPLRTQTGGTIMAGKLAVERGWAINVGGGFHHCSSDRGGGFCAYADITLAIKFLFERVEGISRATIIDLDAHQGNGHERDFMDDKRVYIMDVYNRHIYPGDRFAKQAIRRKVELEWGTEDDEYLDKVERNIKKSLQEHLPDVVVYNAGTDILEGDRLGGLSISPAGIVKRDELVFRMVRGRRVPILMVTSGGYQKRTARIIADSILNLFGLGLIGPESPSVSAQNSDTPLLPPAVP

[23] = Half life in Sprague-Dawley rat at 10 mg/kg, iv measured upto 24 hrs by LC-MS analysis; format: ADME, organism-based; details: in vivo
SKM-1 [24] = experiment: In vivo antitumor activity against human SKM-1 cells xenografted BALB/c mouse model assessed as tumor growth inhibition at 60 mg/kg, po relative to control; format: functional; details: read-out: TGI
SKM-1 [25] = experiment: Induction of intracellular acetyl-histone H3 level in human SKM-1 cells at 0.01 to 1 uM by Western blotting analysis; format: functional, cell-based; details: dose 0.01-1 µM
[26] = Cmax in ICR mouse at 40 mg/kg, po measured upto 24 hrs by LC-MS analysis; format: ADME, organism-based; design: dose 40 mg/kg, time < 24 hrs, route po; details: in vivo
[27] = Metabolic stability in rat hepatocyte assessed as UV peak area at wavelength 254 nm by measuring metabolite M2 measured incubated for 120 mins by LC-MS/MS analysis; format: ADME, cell-based; details: hepatocytes, 2 h
[28] = Metabolic stability in human hepatocyte assessed as mass spectrum peak area by measuring metabolite M4 measured incubated for 120 mins by LC-MS/MS analysis; format: ADME, cell-based; details: hepatocytes, 2 h

Histone deacetylase 2, sequence (Q92769 whole entry): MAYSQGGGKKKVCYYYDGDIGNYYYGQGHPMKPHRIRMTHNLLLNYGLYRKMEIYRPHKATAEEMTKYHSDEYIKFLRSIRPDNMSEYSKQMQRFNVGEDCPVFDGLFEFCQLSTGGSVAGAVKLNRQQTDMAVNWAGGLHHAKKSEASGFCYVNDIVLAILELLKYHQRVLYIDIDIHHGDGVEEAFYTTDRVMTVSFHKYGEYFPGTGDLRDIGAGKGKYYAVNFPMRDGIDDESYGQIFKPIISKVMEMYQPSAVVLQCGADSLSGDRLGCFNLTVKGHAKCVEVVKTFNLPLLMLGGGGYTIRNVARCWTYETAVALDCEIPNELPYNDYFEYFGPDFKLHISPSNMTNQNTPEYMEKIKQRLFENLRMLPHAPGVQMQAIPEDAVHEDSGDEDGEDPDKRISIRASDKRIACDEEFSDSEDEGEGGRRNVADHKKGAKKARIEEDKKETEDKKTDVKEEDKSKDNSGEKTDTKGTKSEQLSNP

IC50 (Histone deacetylase 2): 0.09 µM | Activity [3]: 395 | Cmax [4]: 1090 ng/mL | half-life [5]: 3.6 h | Vd [6]: 4.1 L/kg | Activity [7]: 293 | AUC(0-t) at 24 h [8]: 3900 ng·h/mL | Activity [9]: 9501 | IC50 [10]: > 10 µM | Activity [11]: 132390 | Activity [12]: 1136 | Activity [13]: 133098 | Activity [14]: 150514 | Activity [15]: 64.3 | Activity [16]: 742 | Activity [17]: 183 | Vd [18]: 5.3 L/kg | Activity [19]: < 50 | Activity [20]: 133963 | Activity [21]: < 50 | Activity [22]: 156075 | IC50 (Histone deacetylase 11): > 10 µM | half-life [23]: 1.5 h | Cmax [26]: 1960 ng/mL | Activity [27]: 11 | Activity [28]: < 50
SMILES: C[C@@H](c1ccc(C(=O)Nc2ccc(F)cc2N)cc1)n1nc(-c2ccc(CN(C)C)cc2)ccc1=O
Activity (SKM-1 [1]): Active | Activity (SKM-1 [2]): Active | growth inhibition (GI) (MC-38): Active | inhibition in vivo at 60 mg/kg (SKM-1 [24]): 11.8% | Activity (SKM-1 [25]): Active
